The source of these data is ChEMBL document CHEMBL4256943, “Inhibitors of cyp17a1” (2016).

The species named for the test is Homo sapiens. The test is described as follows: Selectivity factor, ratio of IC50 for human membrane bound C-terminal His4-tagged CYP21A2delta19H mutant to IC50 for human membrane bound C-terminal His4-tagged CYP17A1delta19H mutant.

In the case of `C[C@]12CC[C@H](O)C[C@@H]1/C(=N/O)C[C@@H]1[C@@H]2CC[C@]2(C)C(c3cccnc3)=CC[C@@H]12`, the Ratio IC50 was 68.9.
